Reference: PubChem BioAssay AID328 (DTP/NCI, 2004)
Values joined by “and” are separate entries in the source; they are usually repeats but may differ in a detail not shown here. Identical values can stand only once. Inconclusive results and toxic doses are left out.

Test system: BDF1 mice, P388 leukemia ip, median survival T/C
Assay: NCI In Vivo Anticancer Drug Screen. Data for tumor model P388 Leukemia (intraperitoneal) in B6D2F1 (BDF1) mice
Conditions: endpoint: median survival time, higher = longer survival
Procedure, shortened: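 Reported as T/C, where T is the survival measurement in dosed animals and C the same measurement in vehicle controls.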

[1] = dose: 100.0 mg/kg/injection, schedule: Q04DX003 (ip), vehicle: Klucel (hydroxypropylcellulose) (HPC)
[2] = dose: 100.0 mg/kg/injection, schedule: Q04DX003 (ip), vehicle: saline
[3] = dose: 150.0 mg/kg/injection, schedule: Q01DX009 (ip), vehicle: Klucel (hydroxypropylcellulose) (HPC)
[4] = dose: 200.0 mg/kg/injection, schedule: Q04DX003 (ip), vehicle: Klucel (hydroxypropylcellulose) (HPC)
[5] = dose: 400.0 mg/kg/injection, schedule: Q04DX003 (ip), vehicle: Klucel (hydroxypropylcellulose) (HPC)
[6] = dose: 400.0 mg/kg/injection, schedule: Q04DX003 (ip), vehicle: saline
[7] = dose: 100.0 mg/kg/injection, schedule: Q01DX009 (ip), vehicle: saline with Tween-80
[8] = dose: 400.0 mg/kg/injection, schedule: Q01DX009 (ip), vehicle: saline with Tween-80
[9] = dose: 400.0 mg/kg/injection, schedule: Q04DX003 (ip), vehicle: saline with Tween-80
[10] = dose: 200.0 mg/kg/injection, schedule: Q01DX009 (ip), vehicle: saline with Tween-80
[11] = dose: 50.0 mg/kg/injection, schedule: Q01DX009 (ip), vehicle: saline with Tween-80
[12] = dose: 200.0 mg/kg/injection, schedule: Q04DX003 (ip), vehicle: saline
[13] = dose: 100.0 mg/kg/injection, schedule: Q01DX009 (ip), vehicle: Klucel (hydroxypropylcellulose) (HPC)
[14] = dose: 200.0 mg/kg/injection, schedule: Q01DX009 (ip), vehicle: Klucel (hydroxypropylcellulose) (HPC)
[15] = dose: 400.0 mg/kg/injection, schedule: Q01DX009 (ip), vehicle: Klucel (hydroxypropylcellulose) (HPC)
[16] = dose: 12.5 mg/kg/injection, schedule: Q01DX009 (ip), vehicle: saline with Tween-80

CCCCCCCCCCCCC1CC(=O)OC1=O (configuration not stated)
T/C (dose: 75.0 mg/kg/injection, schedule: Q01DX009 (ip), vehicle: Klucel (hydroxypropylcellulose) (HPC)): 90 % of control | T/C [1]: 104 % of control | T/C [2]: 108 % of control | T/C [3]: 90 % of control | T/C [4]: 109 % of control | T/C (dose: 300.0 mg/kg/injection, schedule: Q01DX009 (ip), vehicle: Klucel (hydroxypropylcellulose) (HPC)): 109 % of control | T/C [5]: 100 % of control | T/C [6]: 120 % of control

C[C@]12CC[C@H]3[C@@H](CCC4=CC(=O)CC[C@@]43C)[C@@H]1CC[C@@H]2OC(=O)Cc1ccc(N(CCCl)CCCl)cc1
T/C (dose: 64.0 mg/kg/injection, schedule: Q01DX009 (ip), vehicle: Klucel (hydroxypropylcellulose) (HPC)): 104 % of control and 105 % of control | T/C [7]: 113 % of control | T/C (dose: 128.0 mg/kg/injection, schedule: Q01DX009 (ip), vehicle: Klucel (hydroxypropylcellulose) (HPC)): 111 % of control and 123 % of control | T/C (dose: 256.0 mg/kg/injection, schedule: Q01DX009 (ip), vehicle: Klucel (hydroxypropylcellulose) (HPC)): 157 % of control | T/C (dose: 264.0 mg/kg/injection, schedule: Q04DX003 (ip), vehicle: saline with Tween-80): 120 % of control | T/C [8]: 209 % of control | T/C [9]: 154 % of control | T/C (dose: 512.0 mg/kg/injection, schedule: Q01DX009 (ip), vehicle: Klucel (hydroxypropylcellulose) (HPC)): 115 % of control | T/C (dose: 600.0 mg/kg/injection, schedule: Q04DX003 (ip), vehicle: saline with Tween-80): 200 % of control

CN(C)c1ccc2cc(S(=O)(=O)O)cc(O)c2c1
T/C [7]: 95 % of control | T/C [10]: 91 % of control | T/C [8]: 91 % of control

OCCN1CCN(CCCN2c3ccccc3Sc3cccnc32)CC1
T/C (dose: 12.5 mg/kg/injection, schedule: Q01DX009 (ip), vehicle: saline): 104 % of control | T/C (dose: 18.75 mg/kg/injection, schedule: Q04DX003 (ip), vehicle: saline): 96 % of control | T/C (dose: 25.0 mg/kg/injection, schedule: Q01DX009 (ip), vehicle: saline): 108 % of control and 110 % of control | T/C (dose: 37.5 mg/kg/injection, schedule: Q04DX003 (ip), vehicle: saline): 107 % of control | T/C (dose: 50.0 mg/kg/injection, schedule: Q01DX009 (ip), vehicle: saline): 122 % of control

Cc1ccc(C)c2c1CCC2C (configuration not stated)
T/C [7]: 123 % of control | T/C [10]: 96 % of control

COC(=O)c1c2ccccc2cn1-c1ccccc1
T/C [11]: 100 % of control | T/C [7]: 109 % of control | T/C [10]: 100 % of control

CC(N)C(=O)O (configuration not stated)
T/C (dose: 100.0 mg/kg/injection, schedule: Q01DX009 (ip), vehicle: saline): 91 % of control | T/C [2]: 88 % of control | T/C (dose: 200.0 mg/kg/injection, schedule: Q01DX009 (ip), vehicle: saline): 108 % of control | T/C [12]: 100 % of control | T/C (dose: 400.0 mg/kg/injection, schedule: Q01DX009 (ip), vehicle: saline): 100 % of control

COc1cccc2c1C(=O)c1c(O)c3c(c(O)c1C2=O)C[C@@](O)(C(C)O)C[C@@H]3OC1CC(N(Cc2ccccc2)Cc2ccccc2)C(O)C(C)O1 (some centres not stated)
T/C (dose: 2.5 mg/kg/injection, schedule: Q01DX009 (ip), vehicle: water): 108 % of control | T/C (dose: 5.0 mg/kg/injection, schedule: Q01DX009 (ip), vehicle: water): 112 % of control | T/C (dose: 20.0 mg/kg/injection, schedule: Q01DX009 (ip), vehicle: water): 166 % of control | T/C (dose: 40.0 mg/kg/injection, schedule: Q01DX009 (ip), vehicle: water): 229 % of control

Clc1ccc(CSc2ncnc3nc[nH]c23)cc1
T/C [7]: 100 % of control | T/C [10]: 104 % of control

O=C(N/N=C/c1ccccc1Cl)c1ccccc1
T/C [13]: 109 % of control | T/C [14]: 118 % of control | T/C [15]: 90 % of control

CCOC(=O)C(Br)(C(=O)OCC)C(c1ccccc1)c1ccccc1
T/C [7]: 95 % of control | T/C [8]: 109 % of control

Cc1ccc2c(c1)=N/C(=N\c1nc(O)c(O)[nH]1)N=2
T/C (dose: 60.0 mg/kg/injection, schedule: Q01DX009 (ip), vehicle: Klucel (hydroxypropylcellulose) (HPC)): 98 % of control | T/C (dose: 66.0 mg/kg/injection, schedule: Q01DX009 (ip), vehicle: Klucel (hydroxypropylcellulose) (HPC)): 106 % of control | T/C [13]: 103 % of control and 118 % of control | T/C [1]: 104 % of control | T/C (dose: 140.0 mg/kg/injection, schedule: Q01DX009 (ip), vehicle: Klucel (hydroxypropylcellulose) (HPC)): 97 % of control | T/C [3]: 168 % of control | T/C [14]: 116 % of control | T/C [4]: 100 % of control | T/C [15]: 111 % of control | T/C [5]: 95 % of control

COc1cc([N+](=O)[O-])c2c(ccc[n+]2C)c1OC
T/C (dose: 50.0 mg/kg/injection, schedule: Q01DX001 (ip), vehicle: saline with Tween-80): 100 % of control | T/C (dose: 100.0 mg/kg/injection, schedule: Q01DX001 (ip), vehicle: saline with Tween-80): 91 % of control | T/C (dose: 200.0 mg/kg/injection, schedule: Q01DX001 (ip), vehicle: saline with Tween-80): 112 % of control

COC(=O)c1cccc(OP(=O)(N(C)C)N(C)C)c1
T/C [11]: 106 % of control | T/C [7]: 114 % of control

Cc1c2ccnc(-c3ccccc3)c2cc2c1[nH]c1ccccc12
T/C [11]: 102 % of control | T/C [7]: 100 % of control | T/C [10]: 102 % of control

Cc1cc(-c2ccc(NC(=O)c3cccc([N+](=O)[O-])c3)c(C)c2)ccc1NC(=O)c1cccc([N+](=O)[O-])c1
T/C (dose: 50.0 mg/kg/injection, schedule: Q01DX005 (ip), vehicle: saline with Tween-80): 96 % of control | T/C (dose: 100.0 mg/kg/injection, schedule: Q01DX005 (ip), vehicle: saline with Tween-80): 94 % of control | T/C (dose: 200.0 mg/kg/injection, schedule: Q01DX005 (ip), vehicle: saline with Tween-80): 105 % of control

Cc1cc(C)c(B2OB(c3c(C)cc(C)cc3C)O2)c(C)c1
T/C (dose: 50.0 mg/kg/injection, schedule: Q04DX003 (ip), vehicle: Klucel (hydroxypropylcellulose) (HPC)): 95 % of control | T/C [1]: 100 % of control | T/C [4]: 95 % of control

O=C(NCc1cnccn1)c1ccc([N+](=O)[O-])cc1
T/C [11]: 100 % of control | T/C [7]: 94 % of control | T/C [10]: 100 % of control | T/C [8]: 103 % of control

Cc1nc(N)ncc1CCC1OCCO1
T/C (dose: 100.0 mg/kg/injection, schedule: Q01DX001 (ip), vehicle: saline): 100 % of control | T/C (dose: 200.0 mg/kg/injection, schedule: Q01DX001 (ip), vehicle: saline): 109 % of control | T/C (dose: 400.0 mg/kg/injection, schedule: Q01DX001 (ip), vehicle: saline): 111 % of control

CSc1ccccc1C=O
T/C [1]: 95 % of control | T/C [4]: 100 % of control | T/C [5]: 112 % of control

Cc1nc2ccccc2nc1CC(=O)c1ccccc1
T/C [11]: 112 % of control | T/C [7]: 104 % of control | T/C [10]: 99 % of control

Cc1c(C)c(N)c(C)c(C)c1N
T/C (dose: 3.0 mg/kg/injection, schedule: Q01DX009 (ip), vehicle: Klucel (hydroxypropylcellulose) (HPC)): 91 % of control | T/C (dose: 3.0 mg/kg/injection, schedule: Q04DX003 (ip), vehicle: Klucel (hydroxypropylcellulose) (HPC)): 108 % of control | T/C (dose: 6.0 mg/kg/injection, schedule: Q01DX009 (ip), vehicle: Klucel (hydroxypropylcellulose) (HPC)): 87 % of control | T/C (dose: 6.0 mg/kg/injection, schedule: Q04DX003 (ip), vehicle: Klucel (hydroxypropylcellulose) (HPC)): 100 % of control | T/C (dose: 12.0 mg/kg/injection, schedule: Q01DX009 (ip), vehicle: Klucel (hydroxypropylcellulose) (HPC)): 95 % of control | T/C (dose: 12.0 mg/kg/injection, schedule: Q04DX003 (ip), vehicle: Klucel (hydroxypropylcellulose) (HPC)): 91 % of control

CCCCCCC(=O)/C=C/c1cc(OC)ccc1OC
T/C [16]: 100 % of control | T/C (dose: 25.0 mg/kg/injection, schedule: Q01DX009 (ip), vehicle: saline with Tween-80): 95 % of control | T/C [11]: 104 % of control | T/C [7]: 104 % of control

O=C(NC(C(=O)O)c1ccccc1)OCc1ccccc1 (configuration not stated)
T/C (dose: 100.0 mg/kg/injection, schedule: Q04DX003 (ip), vehicle: saline with Tween-80): 104 % of control | T/C (dose: 200.0 mg/kg/injection, schedule: Q04DX003 (ip), vehicle: saline with Tween-80): 109 % of control | T/C [9]: 100 % of control

COC(=O)C1CCCCC1NC(C)=O (configuration not stated)
T/C [2]: 95 % of control | T/C [12]: 100 % of control | T/C [6]: 91 % of control

CC/C=N/NC(N)=S
T/C (dose: 3.13 mg/kg/injection, schedule: Q01DX009 (ip), vehicle: saline with Tween-80): 94 % of control | T/C (dose: 6.25 mg/kg/injection, schedule: Q01DX009 (ip), vehicle: saline with Tween-80): 94 % of control | T/C [16]: 94 % of control
